The results in this text go back to patent US20020156236A1, “Binding sites for phosphotyrosine binding domains” (priority 1995, published 2002).

Like-named read-outs stand apart in the source and are kept apart here. Where a SMILES comes first, the peptide text is derived from it.

The target of this test is T1, PTB domain/c-erbB2 binding (GST-PTB domain of SHC; c-erbB2 from SKBR3 lysate) (Homo sapiens, UniProt P29353).
T1 construct: GST-PTB domain fusion proteins were expressed from recombinant baculovirus in sf9 cells; made in house; host or cells: Sf9 cells (recombinant baculovirus) for GST-PTB; c-erbB2 endogenous in SKBR3 cell lysate
T1 sequence (P29353 156-341): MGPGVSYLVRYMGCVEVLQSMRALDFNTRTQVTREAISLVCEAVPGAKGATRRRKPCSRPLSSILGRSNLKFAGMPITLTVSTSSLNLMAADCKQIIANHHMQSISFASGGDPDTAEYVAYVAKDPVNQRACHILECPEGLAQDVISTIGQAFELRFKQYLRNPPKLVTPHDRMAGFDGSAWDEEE
The test can be described thus: biochemical. To be noted: for block of PTB/c-erbB2 interaction at one peptide concentration, in words: FIG. 2C, 300 nM peptides (legend says 500 nM).

Setting [1] is: approximate IC50, inhibition of PTB domain/c-erbB2 binding.

In general, IC50 refers to the midpoint of a concentration-inhibition curve.

For the compound `NC(Cc1ccccc1)C(=O)NC(Cc1ccccc1)C(=O)O` (stereo not drawn), the half-maximal inhibitory concentration (IC50) (Table 3, ability to block PTB domain/c-erbB2 binding, read-out: Affinity (IC50)) was greater than 30000 nM.
Under “Affinity (IC50)”, `CC(C)C[C@H](NC(=O)[C@H](CC(N)=O)NC(=O)[C@H](CC(=O)O)NC(=O)[C@H](Cc1ccccc1)NC(=O)[C@H](C)N)C(=O)N[C@@H](Cc1ccc(OP(=O)(O)O)cc1)C(=O)N[C@@H](Cc1ccc(OP(=O)(O)O)cc1)C(=O)N[C@@H](Cc1c[nH]c2ccccc12)C(=O)N[C@@H](CC(=O)O)C(=O)N[C@@H](CCC(N)=O)C(=O)N[C@@H](CC(N)=O)C(=O)N[C@@H](CO)C(=O)O` [AFDNL (pY) (pY) WDQNS, AFDNL(pY)(pY)WDQNS] (HELM PEPTIDE1{A.F.D.N.L.[O=C([C@H](Cc1ccc(OP(=O)(O)O)cc1)N[*:1])[*:2]].[O=C([C@H](Cc1ccc(OP(=O)(O)O)cc1)N[*:1])[*:2]].W.D.Q.N.S}$$$$V2.0) came in with a half-inhibitory concentration (IC50) of 30 nM.
Take `CC(C)C[C@H](NC(=O)[C@H](CC(N)=O)NC(=O)[C@H](CC(=O)O)NC(=O)[C@H](Cc1ccccc1)NC(=O)[C@H](C)N)C(=O)N[C@@H](Cc1ccc(OP(=O)(O)O)cc1)C(=O)N[C@@H](Cc1ccc(O)cc1)C(=O)N[C@@H](Cc1c[nH]c2ccccc12)C(=O)N[C@@H](CC(=O)O)C(=O)N[C@@H](CCC(N)=O)C(=O)N[C@@H](CC(N)=O)C(=O)N[C@@H](CO)C(=O)O` [AFDNL (pY) YWDQNS, AFDNL(pY)YWDQNS] (HELM PEPTIDE1{A.F.D.N.L.[O=C([C@H](Cc1ccc(OP(=O)(O)O)cc1)N[*:1])[*:2]].Y.W.D.Q.N.S}$$$$V2.0; N-terminus and C-terminus assumed): the “fold less effective in competition” value was 30 fold; the “inhibition of / competition for PTB domain/c-erbB2 binding, in words” value is “strong inhibition”; the “block of PTB/c-erbB2 interaction at one peptide concentration, in words” value was “some inhibition”. The compound further came in with an IC50 (Affinity (IC50)) of 1000 nM.
Regarding `CC(C)C[C@H](NC(=O)[C@H](CC(N)=O)NC(=O)[C@H](CC(=O)O)NC(=O)[C@H](Cc1ccccc1)NC(=O)[C@H](C)N)C(=O)N[C@@H](Cc1ccc(O)cc1)C(=O)N[C@@H](Cc1ccc(OP(=O)(O)O)cc1)C(=O)N[C@@H](Cc1c[nH]c2ccccc12)C(=O)N[C@@H](CC(=O)O)C(=O)N[C@@H](CCC(N)=O)C(=O)N[C@@H](CC(N)=O)C(=O)N[C@@H](CO)C(=O)O` [AFDNLY (pY) WDQNS, AFDNLY(pY)WDQNS] (HELM PEPTIDE1{A.F.D.N.L.Y.[O=C([C@H](Cc1ccc(OP(=O)(O)O)cc1)N[*:1])[*:2]].W.D.Q.N.S}$$$$V2.0; N-terminus and C-terminus assumed), the “IC50 compared with that of AFDNL(pY)(pY)WDQNS, in words” value was “approximately equal” and the “block of PTB/c-erbB2 interaction at one peptide concentration, in words” value was “completely block”. Besides, the concentration for half-maximal inhibition (IC50) (Affinity (IC50)) was determined as 30 nM. For the setting “Apparent Inhibition (IC50)”, the IC50 came out at 30 nM. The compound also had an IC50 under setting [1] of roughly 30 nM.
As for `CC(C)C[C@H](NC(=O)[C@H](Cc1ccc(OP(=O)(O)O)cc1)NC(=O)[C@H](CCC(=O)O)NC(=O)[C@@H]1CCCN1C(=O)[C@H](CC(N)=O)NC(=O)[C@H](CCC(=O)O)NC(=O)[C@@H](NC(=O)[C@H](C)NC(=O)CNC(=O)CNC(=O)[C@H](Cc1ccccc1)NC(=O)[C@H](C)N)C(C)C)C(=O)N[C@@H](C)C(=O)N1CCC[C@H]1C(=O)N[C@@H](CCCNC(=N)N)C(=O)N[C@@H](C)C(=O)NCC(=O)N[C@H](C(=O)N[C@@H](C)C(=O)N[C@@H](CO)C(=O)N[C@@H](CCC(N)=O)C(=O)O)[C@@H](C)O` [AFGGAVENPE (pY) LAPRAGTASQ, AFGGAVENPE(pY)LAPRAGTASQ] (HELM PEPTIDE1{A.F.G.G.A.V.E.N.P.E.[O=C([C@H](Cc1ccc(OP(=O)(O)O)cc1)N[*:1])[*:2]].L.A.P.R.A.G.T.A.S.Q}$$$$V2.0), the IC50 by setting is: (Apparent Inhibition (IC50)) 1000 nM; under setting [1], roughly 1000 nM.
`CC(C)C[C@H](NC(=O)[C@@H]1CCCN1C(=O)[C@H](C)N)C(=O)N[C@@H](C)C(=O)N[C@@H](CS)C(=O)N[C@@H](CO)C(=O)N1CCC[C@H]1C(=O)N[C@@H](CCC(N)=O)C(=O)N1CCC[C@H]1C(=O)N[C@@H](CCC(=O)O)C(=O)N[C@@H](Cc1ccc(OP(=O)(O)O)cc1)C(=O)N[C@H](C(=O)N[C@@H](CC(N)=O)C(=O)N[C@@H](CCC(N)=O)C(=O)N1CCC[C@H]1C(=O)N[C@@H](CCC(=O)O)C(=O)N[C@H](C(=O)N[C@@H](CCCNC(=N)N)C(=O)N1CCC[C@H]1C(=O)N[C@@H](CCC(N)=O)C(=O)N[C@@H](CO)C(=O)O)C(C)C)C(C)C` [APLACSPQPE (pY) VNQPEVRPQS, APLACSPQPE(pY)VNQPEVRPQS] (HELM PEPTIDE1{A.P.L.A.C.S.P.Q.P.E.[O=C([C@H](Cc1ccc(OP(=O)(O)O)cc1)N[*:1])[*:2]].V.N.Q.P.E.V.R.P.Q.S}$$$$V2.0): the half-maximal inhibitory concentration (IC50) (Apparent Inhibition (IC50)) was greater than 100000 nM.
Under “Affinity (IC50)”, `CC(C)C[C@H](NC(=O)[C@H](CCC(N)=O)NC(=O)[C@H](CC(N)=O)NC(=O)[C@H](CCC(N)=O)NC(=O)[C@H](CO)NC(=O)[C@H](Cc1ccc(OP(=O)(O)O)cc1)NC(=O)[C@H](Cc1c[nH]c2ccccc12)NC(=O)[C@H](CO)NC(=O)[C@@H](N)CC(=O)O)C(=O)N[C@@H](Cc1ccccc1)C(=O)N[C@@H](CC(=O)O)C(=O)N[C@@H](CO)C(=O)N[C@@H](Cc1ccccc1)C(=O)N[C@@H](C)C(=O)N1CCC[C@H]1C(=O)N[C@@H](CCC(=O)O)C(=O)NCC(=O)N[C@@H](Cc1ccc(OP(=O)(O)O)cc1)C(=O)N1CCC[C@H]1C(=O)N[C@@H](C)C(=O)N[C@@H](CC(N)=O)C(=O)O` [DSW (pY) SQNQLFDSFAPEG (pY) PAN] (HELM PEPTIDE1{D.S.W.[O=C([C@H](Cc1ccc(OP(=O)(O)O)cc1)N[*:1])[*:2]].S.Q.N.Q.L.F.D.S.F.A.P.E.G.[O=C([C@H](Cc1ccc(OP(=O)(O)O)cc1)N[*:1])[*:2]].P.A.N}$$$$V2.0) came in with a 50% inhibitory concentration (IC50) greater than 30000 nM.
On the same count and under the same terms, to `CC(C)C[C@H](NC(=O)[C@H](CCC(N)=O)NC(=O)[C@H](CC(N)=O)NC(=O)[C@H](CCC(N)=O)NC(=O)[C@H](CC(=O)O)NC(=O)[C@H](Cc1c[nH]c2ccccc12)NC(=O)[C@H](CO)NC(=O)[C@@H](N)CC(=O)O)C(=O)N[C@@H](Cc1ccccc1)C(=O)N[C@@H](CO)C(=O)N[C@@H](Cc1ccc(OP(=O)(O)O)cc1)C(=O)N[C@@H](Cc1ccc(OP(=O)(O)O)cc1)C(=O)N[C@@H](CO)C(=O)N[C@@H](Cc1ccccc1)C(=O)N[C@@H](C)C(=O)N1CCC[C@H]1C(=O)N[C@@H](CCC(=O)O)C(=O)NCC(=O)N1CCC[C@H]1C(=O)N[C@@H](C)C(=O)N[C@@H](CC(N)=O)C(=O)O` [DSWDQNQLFS (pY) (pY) SFAPEGPAN] (HELM PEPTIDE1{D.S.W.D.Q.N.Q.L.F.S.[O=C([C@H](Cc1ccc(OP(=O)(O)O)cc1)N[*:1])[*:2]].[O=C([C@H](Cc1ccc(OP(=O)(O)O)cc1)N[*:1])[*:2]].S.F.A.P.E.G.P.A.N}$$$$V2.0) belongs greater than 30000 nM.
`CC(C)C[C@H](NC(=O)CNC(=O)[C@H](CC(C)C)NC(=O)[C@H](Cc1ccc(OP(=O)(O)O)cc1)NC(=O)[C@H](CCC(=O)O)NC(=O)[C@@H]1CCCN1C(=O)[C@H](CC(N)=O)NC(=O)[C@H](CCC(=O)O)NC(=O)[C@H](C)NC(=O)[C@@H](NC(=O)[C@@H]1CCCN1C(=O)[C@@H](NC(=O)CNC(=O)[C@@H](N)CCC(=O)O)[C@@H](C)O)[C@@H](C)O)C(=O)N[C@@H](CC(=O)O)C(=O)N[C@H](C(=O)N1CCC[C@H]1C(=O)N[C@H](C(=O)O)C(C)C)C(C)C` [EGTPTAENPE (pY) LGLDVPV, EGTPTAENPE(pY)LGLDVPV] (HELM PEPTIDE1{E.G.T.P.T.A.E.N.P.E.[O=C([C@H](Cc1ccc(OP(=O)(O)O)cc1)N[*:1])[*:2]].L.G.L.D.V.P.V}$$$$V2.0): the half-inhibitory concentration (IC50) was 1000 nM (Apparent Inhibition (IC50)) and roughly 1000 nM under setting [1].
